Tests used:
A2780 = assay: Growth assay using Alamar Blue; format: cell-based; conditions: Homo sapiens, read-out: IC50 against cell line A2780
Method: (§1) Cells were seeded in 384-well plates (white, Greiner: 781080) at a density of […] cells per well in medium (RPMI+10% FCS).
(§2) Cells were incubated in 25 μl medium/well and were grown over night at 37° C., 6% CO2. On the following day compounds were added in DMSO in serial fold dilutions in fresh medium. Negative control wells were incubated without cells. Positive control wells were incubated with cells but without inhibitors (DMSO only). These wells served as data points to determine relative growth (given in % of the DMSO control [=100%]). The cell number was determined by addition of 5 μL Alamar Blue™ (Biosource DAL1100) to each well. Fluorescence was measures with an Analyst GT machine (Molecular Devices) at an excitation wavelength of 560 nm and an emission wavelength of 590 nm.
(§3) The following cell lines were used: A2780 (ECACC order number 93112519; human ovarian carcinoma; Semin Oncol (1984) 11:285; Cancer Res (1987) 47:414), B16F1 (ATCC order number CRL-6323; melanoma; Nat. New Biol. 242: 148-149, 1973); HCT116 (ATCC order number CCL-247; Colorectal carcinoma; Cancer Res (1981) 41:1751; Cancer (1995) 76:201), HT29 (ATTC order number HTB-38; colorectal adenocarcinoma; J. Biol. Chem. 271: 9490-9496, 1996) HepG2 (ATCC order number HB-8065; hepatocellular carcinoma; J. Biol. Chem. 271: 10073-10078, 1996), J774 (ATCC order number TIB-67; reticulum cell sarcoma; J. Biol. Chem. 271: 18431-18436, 1996); MCF7 (ATCC order number HTB-22; Breast carcinoma; J Natl Cancer Inst (1973) 51:1409; Cancer Res (1993) 53:5193), PM1 (obtainable from the National Institute of Allergy and Infectious Diseases; Division of AIDS via the NIH AIDS Research & Reference Reagent Program; Lusso P et al (1995), J Virol 69: 3712-3720) and U373-MAGI-CCR5 (obtainable from the National Institute of Allergy and Infectious Diseases; Division of AIDS via the NIH AIDS Research & Reference Reagent Program; Kensinger R D et al (2004), Antimicrob Agents Chemother 48: 1614-1623).
(§4) IC50s were calculated for each cell line based on serial dilutions.

J774 = assay: Growth assay using Alamar Blue; format: cell-based; conditions: Mus musculus, read-out: IC50 against cell line J774
Method: as §1, §2, §3, §4

MCF7 = assay: Growth assay using Alamar Blue; format: cell-based; conditions: Homo sapiens, read-out: IC50 against cell line MCF7
Method: as §1, §2, §3, §4

HT29 = assay: Growth assay using Alamar Blue; format: cell-based; conditions: Homo sapiens, HT-29, read-out: IC50 against cell line HT29
Method: as §1, §2, §3, §4

PM1 = assay: Growth assay using Alamar Blue; format: cell-based; conditions: read-out: IC50 against cell line PM1
Method: as §1, §2, §3, §4

U373-MAGI-CCR5E = assay: Growth assay using Alamar Blue; format: cell-based; conditions: read-out: IC50 against cell line U373-MAGI-CCR5E
Method: as §1, §2, §3, §4

HepG2 = assay: Growth assay using Alamar Blue; format: cell-based; conditions: Homo sapiens, read-out: IC50 against cell line HepG2
Method: as §1, §2, §3, §4

HCT116 = assay: Growth assay using Alamar Blue; format: cell-based; conditions: Homo sapiens, HCT-116, read-out: IC50 against cell line HCT116
Method: as §1, §2, §3, §4

B16F1 = assay: Growth assay using Alamar Blue; format: cell-based; conditions: Mus musculus, B16-F1, read-out: IC50 against cell line B16F1
Method: as §1, §2, §3, §4

CDK1/CycB = CDK1/CycB (Homo sapiens, UniProt P06493); assay: General kinase assay (Example 80); format: biochemical; conditions: ATP 1 μM
Method: (§5) The inhibitory effect of compounds according to the present invention on the activity of protein kinases can be measured according to the following protocol: • Reaction Volume: 40 μl • Reaction Time: 60 min • Reaction Temperature: room temperature • Assay Plate: 96 well U bottom plate (Greiner, 650161) • MultiScreen-PH Plate: 96 well MAPH Filter Plates (Millipore, MAPHNOB50) • Filter Washing Solution: 0.75% H3PO4 • Scintillation Liquid Supermix Liquid Scintillator (PerkinElmer, 1200-439) Controls: • Negative Control (C−): 100 mM EDTA (Ethylenediaminetetraacetic acid), no Inhibitor • Positive Control (C+): no Inhibitor Reaction Buffer: • 20 mM Tris (Tris(hydroxymethyl)aminomethane hydrochloride), pH 7.5 • 10 mM MgCl2 • 1 mM DTT Final Assay Concentrations: • Kinase: Use kinase conc. yielding 10% ATP turn over. • ATP: 1 μM • Adenosine 5′-[-^33P]triphosphate:12.5 μCi/ml (Amersham Biosciences, BF1000) • Substrate: Myelin Basic Protein 10 μM (Invitrogen, 13228-010) Pipetting Sequence: • 1) Add 10 μl 4 fold concentrated Substrate+4 fold concentrated ATP in […] concentrated Reaction Buffer to each well of Assay Plate • 2) Add 10 μl 4 fold concentrated inhibitor in 4% DMSO in H2O to each well except to C− and C+wells • 3) Add 10 μl 4% DMSO in H2O to C− and C+wells • 4) Add 10 μl 500 mM EDTA in H2O to C− wells • 5) Add 10 μl 50 μCi/ml Adenosine 5′-[-^33P]triphosphate in H2O to each well • 6) Add 10 μl 4 fold concentrated kinase in Reaction Buffer to each well • 7) Incubate 1 hr at room temperature • 8) Add 10 μl 50 mM EDTA in H2O to each well except to C− wells • 9) Prepare MAPH plates by adding 200 μl 0.75% H3PO4 to each well • 10) Exhaust 0.75% H3PO4 using Millipore vacuum station • 11) Add 60 μl 0.75% H3PO4 to each well of MAPH Filter Plate • 12) Transfer 30 μl sample per well from Assay Plate to corresponding well of MAPH Filter Plate • 13) Incubate 30 min at room temperature • 14) Wash each well of MAPH Filter Plates 3× with 200 μl 0.75% H3PO4 using Millipore vacuum station. • 15) Add 20 μl Scintillation Liquid to each well of MAPH Filter Plate • 16) Seal MAPH Filter Plate • 17) Store MAPH Filter Plate 30 min in darkness • 18) Quantify radioactivity Results:
(§6) IC50s were calculated for each kinase based on serial dilutions.

CDK4/CycD1 = CDK4/CycD1 (Homo sapiens, UniProt P11802); assay: General kinase assay (Example 80); format: biochemical; conditions: ATP 1 μM
Method: as §5, §6

CDK6/CycD3 = CDK6/CycD3 (Homo sapiens, UniProt Q00534); assay: General kinase assay (Example 80); format: biochemical; conditions: ATP 1 μM
Method: as §5, §6

CDK5/p35 = molecular target: T1, CDK5/p35 (Homo sapiens, UniProt Q00535); assay: General kinase assay (Example 80); format: biochemical; conditions: ATP 1 μM
T1 construct: purchased Upstate
Method: (§7) Kinase assays determining CDK2/CyclinA and CDK5/p35 activity were performed as described by the manufacturer's recommendations (ProQinase (Freiburg, Germany) for CDK2/CyclinA and Upstate for CDK5/p35).
as §5, §6

CDK2/CycA = molecular target: T2, CDK2/CycA (Homo sapiens, UniProt P24941); assay: General kinase assay (Example 80); format: biochemical; conditions: ATP 1 μM
T2 construct: purchased ProQinase (Freiburg, Germany)
Method: as §7, §5, §6

HBV (HepG2-2.2.15 cells) = assay: HBV replication assay; format: cell-based; conditions: 6 days
Method: To test the anti-HBV-activity of compounds of the present invention the HBV-producing cell line HepG2-2.2.15 (M. A. Sells, PNAS 1987, 84, 1005-1009) is used. About 1.0×10^4 cells are seeded in 96-well microtiter plates in DMEM medium supplemented with 10% FCS. After incubation at 37° C. in 5% CO2 atmosphere for 24 hours the medium is replaced with fresh medium containing the appropriately diluted compounds of the present invention. 3 days later medium is replaced by freshly prepared compound-containing medium and the cells are incubated for further 3 days. Subsequently 200 μl lysis buffer (50 mM Tris-Cl 7.5; 1 mM EDTA 8.0; 0.5% NP40) per well is added. To remove cell debris and nucleic acids, lysate is centrifuged (15000 rpm, 10 min, 4° C.).
Cellular and viral RNA is removed by addition of 2 μl of RNase. 100 μl of the samples are spotted onto an uncharged nylon membrane pre-wetted with PBS (phosphate-buffered saline) using a 96 well-blotting chamber (MINIfold Dot-Blot, Schleicher&Schüll). […]
The fixed membrane is pre-hybridized in a standard hybridisation buffer (50% formamide, 5×SSPE, 10×Denhards, 1% SDS, 100 μg/ml salmon sperm DNA) for at least 3 hours at 42° C. and hybridised overnight against the labelled HBV-fragment. […] The intensity of the HBV-DNA is quantified using a phosphoimager (Fuji). […] Absorbance is monitored at 570 nm and 600 nm wavelength.

T1 sequence (Q00535 whole entry): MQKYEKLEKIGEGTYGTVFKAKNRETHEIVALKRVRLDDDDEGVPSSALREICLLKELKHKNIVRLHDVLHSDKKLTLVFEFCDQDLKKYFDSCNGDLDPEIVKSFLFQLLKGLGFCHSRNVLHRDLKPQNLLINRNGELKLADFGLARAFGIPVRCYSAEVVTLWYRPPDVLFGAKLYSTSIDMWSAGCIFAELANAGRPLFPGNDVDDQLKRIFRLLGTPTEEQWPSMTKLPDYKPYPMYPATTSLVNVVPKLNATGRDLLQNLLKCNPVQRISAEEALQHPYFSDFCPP
T1 sequence (Q15078 whole entry partner): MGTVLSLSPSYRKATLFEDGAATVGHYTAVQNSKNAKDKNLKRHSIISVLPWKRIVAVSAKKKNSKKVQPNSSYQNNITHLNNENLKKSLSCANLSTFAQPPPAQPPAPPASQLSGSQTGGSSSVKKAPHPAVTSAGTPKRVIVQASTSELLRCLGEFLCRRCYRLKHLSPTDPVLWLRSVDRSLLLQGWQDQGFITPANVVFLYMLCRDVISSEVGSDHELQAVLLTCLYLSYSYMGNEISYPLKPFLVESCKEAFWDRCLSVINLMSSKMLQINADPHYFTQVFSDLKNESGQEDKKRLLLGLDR
Chain of CDK1/CycB (P06493 whole entry, species assumed): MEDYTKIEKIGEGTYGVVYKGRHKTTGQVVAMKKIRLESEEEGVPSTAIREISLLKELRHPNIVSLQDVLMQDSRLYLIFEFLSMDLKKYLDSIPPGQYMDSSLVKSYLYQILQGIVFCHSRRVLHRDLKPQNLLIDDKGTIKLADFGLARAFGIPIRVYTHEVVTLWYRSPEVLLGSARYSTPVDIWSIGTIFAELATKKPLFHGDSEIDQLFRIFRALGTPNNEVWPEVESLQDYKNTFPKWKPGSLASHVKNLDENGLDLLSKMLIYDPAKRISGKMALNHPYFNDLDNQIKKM
Chain of CDK1/CycB (P14635 whole entry partner, species assumed): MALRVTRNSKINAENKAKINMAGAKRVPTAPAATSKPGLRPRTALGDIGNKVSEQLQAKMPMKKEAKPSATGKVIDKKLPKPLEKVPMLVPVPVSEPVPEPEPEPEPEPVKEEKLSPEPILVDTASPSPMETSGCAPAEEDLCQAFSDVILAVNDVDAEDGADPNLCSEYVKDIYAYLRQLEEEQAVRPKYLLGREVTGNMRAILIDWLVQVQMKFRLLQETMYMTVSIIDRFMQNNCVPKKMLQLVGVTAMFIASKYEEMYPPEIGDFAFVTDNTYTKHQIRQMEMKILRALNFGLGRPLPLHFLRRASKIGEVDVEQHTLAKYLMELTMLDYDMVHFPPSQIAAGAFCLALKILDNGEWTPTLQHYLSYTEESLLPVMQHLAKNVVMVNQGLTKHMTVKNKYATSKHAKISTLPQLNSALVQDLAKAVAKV
Chain of CDK4/CycD1 (P11802 whole entry, species assumed): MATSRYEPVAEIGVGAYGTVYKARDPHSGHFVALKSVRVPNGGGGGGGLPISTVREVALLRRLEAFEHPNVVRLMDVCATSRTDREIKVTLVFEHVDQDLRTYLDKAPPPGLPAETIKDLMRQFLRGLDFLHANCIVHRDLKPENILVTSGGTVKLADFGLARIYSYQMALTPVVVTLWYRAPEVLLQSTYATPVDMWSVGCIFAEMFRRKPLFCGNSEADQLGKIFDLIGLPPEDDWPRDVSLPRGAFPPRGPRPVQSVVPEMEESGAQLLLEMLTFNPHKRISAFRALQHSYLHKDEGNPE
Chain of CDK4/CycD1 (P24385 whole entry partner, species assumed): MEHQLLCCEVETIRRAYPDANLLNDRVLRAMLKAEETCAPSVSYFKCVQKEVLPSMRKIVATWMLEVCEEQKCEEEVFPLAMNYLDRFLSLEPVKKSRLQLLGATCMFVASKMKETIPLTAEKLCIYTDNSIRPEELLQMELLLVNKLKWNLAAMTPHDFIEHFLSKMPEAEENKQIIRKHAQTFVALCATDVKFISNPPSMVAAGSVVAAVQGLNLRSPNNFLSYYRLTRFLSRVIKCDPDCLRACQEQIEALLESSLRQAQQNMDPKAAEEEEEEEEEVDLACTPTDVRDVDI
Chain of CDK6/CycD3 (Q00534 whole entry, species assumed): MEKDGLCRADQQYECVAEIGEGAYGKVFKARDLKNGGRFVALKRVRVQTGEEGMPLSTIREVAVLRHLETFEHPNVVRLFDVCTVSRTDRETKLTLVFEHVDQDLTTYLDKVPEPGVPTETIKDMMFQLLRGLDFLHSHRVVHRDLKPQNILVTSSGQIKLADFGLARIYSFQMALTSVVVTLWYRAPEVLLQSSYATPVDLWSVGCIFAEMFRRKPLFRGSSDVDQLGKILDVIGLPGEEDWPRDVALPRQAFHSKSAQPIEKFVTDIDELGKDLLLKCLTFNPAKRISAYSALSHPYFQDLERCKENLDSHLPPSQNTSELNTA
Chain of CDK6/CycD3 (P30281 whole entry partner, species assumed): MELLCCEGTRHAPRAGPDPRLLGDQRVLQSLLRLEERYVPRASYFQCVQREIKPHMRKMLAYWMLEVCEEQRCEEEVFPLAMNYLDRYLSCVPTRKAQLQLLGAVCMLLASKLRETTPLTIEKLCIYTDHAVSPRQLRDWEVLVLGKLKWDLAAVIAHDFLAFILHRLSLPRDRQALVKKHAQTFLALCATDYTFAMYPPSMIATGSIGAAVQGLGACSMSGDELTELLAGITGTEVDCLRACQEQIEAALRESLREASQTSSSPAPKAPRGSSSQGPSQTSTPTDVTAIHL

Row | IC50 (A2780) [µM] | IC50 (MCF7) [µM] | IC50 (HT29) [µM] | IC50 (HepG2) [µM] | IC50 (HCT116) [µM] | IC50 (B16F1) [µM] | IC50 (CDK1/CycB) [µM] | IC50 (CDK4/CycD1) [µM] | IC50 (CDK6/CycD3) [µM] | IC50 (CDK5/p35) [µM] | IC50 (CDK2/CycA) [µM] | Compound | IC50 (J774) [µM] | IC50 (PM1) [µM] | IC50 (U373-MAGI-CCR5E) [µM] | HBV replication (HBV-DNA) (HBV (HepG2-2.2.15 cells))
1 | < 10 | < 10 | < 5 | < 10 | < 2 | < 10 | < 10 | < 10 | < 10 | < 5 | < 10 | COc1ccccc1-c1cc(Nc2cccc(CS(N)(=O)=O)c2)ncn1 [Compound 85, C-{3-[6-(2-methoxy-phenyl)-pyrimidin-4-ylamino]-phenyl}-methanesulfonamide] | < 10 | < 5 | < 10 | –
2 | – | – | – | – | – | – | – | – | – | – | – | CN1CC[C@H](c2c(O)cc(O)c3c(=O)cc(-c4ccccc4Cl)oc23)[C@H](O)C1 [flavopiridol] | – | – | – | inhibits replication

From US8507498B2, “4, 6-disubstituted aminopyrimidine derivatives as inhibitors of protein kinases” (Ingenium Pharmaceuticals GmbH, priority 2007, dated 2013)
